Like-named read-outs stand apart in the source and are kept apart here.
Tests used:
[1] = test system: chronic constrictive injury (CCI) model (loosely ligated common sciatic nerve); test: chronic constrictive injury (CCI) model of peripheral mononeuropathy; assay type: in vivo, rat; details: oral test doses of 0.3, 3 and 30 mg/kg/day (dosed four times a day)
Source text: The development of a rodent model of peripheral mononeuropathy (Pain, 33, 1988, 87-107; Exp Brain Res, 113, 1997, 200-206; and Exp Brain Res, 120, 1998, 432-438) has provided a new approach for studies of post-injury neuropathic pain. The model produces neuropathic pain syndromes in the rat by loosely ligating the common sciatic nerve and has been described as a chronic constrictive injury (CCI) model. The behavioural, morphological and autoradiographic data obtained from the rodents in this model closely represent the clinical features of post-injury neuropathic pain. […] This model has value therefore in predicting efficacy of compounds against neuropathic pain.
The identification of compounds which are useful in the treatment or prevention of neuropathic pain is the subject of the present invention. These properties may be assessed, for example, using the CCI model as described in Pain, 33, 1988, 87-107.

[2] = test system: chronic constrictive injury (CCI) model (loosely ligated common sciatic nerve); details: cited from earlier work

Question: Which “activity in the CCI model” value [1] does the source give for `CCN(Cc1cc(Cl)ccc1OCC(C)C)c1ccc(C(=O)NS(=O)(=O)c2c(C)noc2C)nn1` [d), N-(3,5-dimethylisoxazol-4-ylsulphonyl)-6-[N-(5-chloro-2-(2-methylpropoxy)benzyl)-N-ethylamino]pyridazine-3-carboxamide] here?
Answer: demonstrates activity

Question: Which “activity in the CCI model” value ([2]; Eur J Pharmacol, 324, 1997, 157-160) does the source give for `NCC1(CC(=O)O)CCCCC1` [gabapentin] here?
Answer: demonstrates activity

Question: For `O=C(c1ccccc1)c1ccc2n1CCC2C(=O)O` (stereo not drawn) [ketorolac tromethamine], which “activity compared to morphine” value ([2]; dosed intrathecally, Can J Anaesth, 1996, 43, 967) is on record?
Answer: modest activity
